One substance from EP0378671B1, “INSULINOMIMETIC AND INSULIN RECEPTOR BINDING SITE PEPTIDES” (CITY OF HOPE, priority 1988, dated 1997) can be followed below.

For the test, the system named is isolated rat adipocytes. Briefly: Lipogenesis assay: incorporation of 3-[3H] glucose into lipids. Type of test: cell-based. The conditions noted are these: 2 hours at 37°C, compared with insulin and basal (Figure 10). The method, then: The lipogenesis assay was conducted according to Smal, et al., J.Biol.Chem. 262:11071-11079 (1987). Dissected epididymal and retroperitoneal fat pads were digested under vigorous shaking at 37°C for 30 min with collagenase (1.0 mg/ml) in Krebs-Ringer-Heps (KRH) buffer, pH 7.4, 35 mg/ml dialyzed bovine serum albumin (BSA), 0.27 mM glucose. After filtration on cheesecloth and 4 washes in KRH with 10 mg/ml BSA, the adipocytes were preincubated for 4 hours at 37°C in the same buffer.
The lipogenesis assay was performed in triplicate in 6 ml polyethylene vials by adding successively 400 µl of adipocyte suspension (80 X l0^3 cells/ml), 50 µl of KRH buffer pH 7.4 (1% BSA, 0.27 mM glucose) without hormone (basal lipogenesis) or with insulin or receptor-derived peptides at the indicated concentrations, and 50 µl D-[3-^3H]-glucose in a total volume of 0.5 ml. The vials were incubated 2 hours at 37°C under gentle shaking. […]

Turning to “insulin receptor sequence 81-91: peptide with insulin receptor sequence 81-91 (LIMITDYLLLF; UniProt P06213 81-91, looked up, fragment)”, the stimulation of lipogenesis entry is “totally inactive”. In addition, the stimulation of lipogenesis entry (listed as insulin receptor sequence 81 to 91) is given as “not stimulated above basal”.
